# Source: patent US20220160739A1, “METHODS FOR TREATING SUBJECTS WITH CHRONIC KIDNEY DISEASE” (Janssen Pharmaceutica NV, priority 2019, published 2022)
# Legend:
# [1] = tested on: patients with type 2 diabetes mellitus (T2DM), Stage 2 or 3 chronic kidney disease (CKD) and macroalbuminuria; experiment: Randomized, double-blind, placebo-controlled study of canagliflozin: safety and tolerability (adverse events); format: in vivo
# Text: This was a randomized, double-blind, event-driven, placebo-controlled, parallel-group, 2-arm, multicenter study to evaluate the effects of canagliflozin relative to placebo on progression to doubling of serum creatinine, end-stage kidney disease (ESKD), renal or cardiovascular (CV) death in patients with type 2 diabetes mellitus (T2DM), Stage 2 or 3 chronic kidney disease (CKD) and macroalbuminuria, who were receiving standard of care including a maximum tolerated labeled daily dose of an angiotensin-converting enzyme inhibitor (ACEi) or angiotensin receptor blocker (ARB). […] The safety objective was to assess the overall safety and tolerability of canagliflozin. […]
# Treatment-emergent safety analyses and summaries were presented using the On-Treatment analysis set (i.e., all treated subjects through 30 days after last dose), whereas analyses of amputation, fracture, and malignancy were performed using the On-Study analysis set (i.e., all treated subjects through end of study).
# Safety analyses were performed using either the On-Treatment analysis set (treated subjects up to 30 days of last dose) or the On-Study analysis set (treated subjects through the end of study).
# [2] = tested on: patients with type 2 diabetes mellitus (T2DM), Stage 2 or 3 chronic kidney disease (CKD) and macroalbuminuria; experiment: Randomized, double-blind, placebo-controlled study of canagliflozin: efficacy (renal and CV endpoints, HbA1c, body weight, blood pressure); format: in vivo, human
# Text: This was a randomized, double-blind, event-driven, placebo-controlled, parallel-group, 2-arm, multicenter study to evaluate the effects of canagliflozin relative to placebo on progression to doubling of serum creatinine, end-stage kidney disease (ESKD), renal or cardiovascular (CV) death in patients with type 2 diabetes mellitus (T2DM), Stage 2 or 3 chronic kidney disease (CKD) and macroalbuminuria, who were receiving standard of care including a maximum tolerated labeled daily dose of an angiotensin-converting enzyme inhibitor (ACEi) or angiotensin receptor blocker (ARB). […] The safety objective was to assess the overall safety and tolerability of canagliflozin.
# Randomization included a 1:1 ratio to canagliflozin 100 mg or matching placebo, stratified by screening estimated glomerular filtration rate (eGFR) [≥30 to less than 45, ≥45 to less than 60, ≥60 to less than 90 mL/min/1.73 m^2]. The primary efficacy composite endpoint was the time to the first occurrence of doubling of serum creatinine, ESKD, and renal or CV death. The major secondary efficacy endpoints (tested in the following hierarchical order) included: • Composite of CV death and hospitalized heart failure • Composite of CV death, non-fatal MI, and non-fatal stroke (i.e., 3-point “MACE”) • Hospitalized heart failure • Composite of doubling of serum creatinine, ESKD, and renal death • CV death • All-cause death • Composite of CV death, non-fatal MI, non-fatal stroke, hospitalized heart failure, and hospitalized unstable angina
# A planned interim analysis was conducted at 413 primary endpoints and the IDMC subsequently recommended to stop the study early for efficacy based on pre-specified stopping criteria.
# The primary analysis was performed in the Intent-To-Treat (ITT) analysis set (i.e., all randomized subjects through end of study) using a stratified Cox proportional hazard model including treatment as the explanatory variable and stratified by screening eGFR. Secondary endpoints were similarly analyzed.
# As a result of stopping at the interim analysis, the primary endpoint was tested at a two-sided significance level of 0.022 based on the alpha spending function, whereas secondary endpoints were tested at 0.038.
# Analyses were performed to assess the impact of adjusting for postbaseline measurements of HbA1c and systolic blood pressure in the primary efficacy analysis. A series of proportional hazard regression models which included postbaseline HbA1c and systolic blood pressure measurements as time-varying covariates were fit. Because changes in HbA1c have a delayed effect on cardiovascular risk, several models were constructed. In each model, HbA1c was evaluated first using the single coincident value, a single lagged value, and then as a running mean average value. Single coincident systolic blood pressure measurements were used for all analyses.
# [3] = Cox proportional hazards model, On-Study
# [4] = denominators restricted to females
# [5] = renal related AE by preferred term
# [6] = canagliflozin compared to placebo, ITT
# [7] = canagliflozin minus placebo, end of treatment
compound,measurement,setting,value
Cc1ccc(C2OC(CO)C(O)C(O)C2O)cc1Cc1ccc(-c2ccc(F)cc2)s1 (stereo not drawn) [Canagliflozin],Adjudicated fracture: HR (vs. Placebo),[1]; [3],0.98
same,Atraumatic lower limb amputation: HR (vs. Placebo),[1]; [3],1.11
same,Final vital status: Alive n (%),"[1]; ITT analysis set, N = 2202",2030 (92.2)
same,Final vital status: Died n (%),"[1]; ITT analysis set, N = 2202",168 (7.6)
same,Adjudicated fracture: IRD (minus Placebo),[1]; On-Study,−0.29 /1000 subject-years
same,Adjudicated fracture: incidence rate,[1]; On-Study,11.80 /1000 subject-years
same,Adjudicated fracture: number of events,[1]; On-Study,80
same,Atraumatic lower limb amputation: IRD (minus Placebo),[1]; On-Study,1.16 /1000 subject-years
same,Atraumatic lower limb amputation: incidence rate,[1]; On-Study,12.34 /1000 subject-years
same,Atraumatic lower limb amputation: number of events,[1]; On-Study,87
same,Adjudicated fracture: subjects with any event (%),"[1]; On-Study, N = 2200",(3.0) %
same,Atraumatic lower limb amputation: subjects with any event (%),"[1]; On-Study, N = 2200",(3.2) %
same,Adverse Events Leading to Discontinuation N (%),"[1]; On-Treatment, N = 2200",267 (12.1)
same,Adverse Events Related to Study Drug N (%),"[1]; On-Treatment, N = 2200",469 (21.3)
same,Adverse Events Related to Study Drug and Leading to Discontinuation N (%),"[1]; On-Treatment, N = 2200",75 (3.4)
same,Any Adverse Events N (%),"[1]; On-Treatment, N = 2200",1784 (81.1)
same,Death (fatal adverse event) N (%),"[1]; On-Treatment, N = 2200",109 (5.0)
same,Renal related adverse events: total subjects with the AEs (%),"[1]; On-Treatment, N = 2200",(13.2) %
same,Serious Adverse Events Leading to Discontinuation N (%),"[1]; On-Treatment, N = 2200",134 (6.1)
same,Serious Adverse Events N (%),"[1]; On-Treatment, N = 2200",737 (33.5)
same,Serious Adverse Events Related to Study Drug N (%),"[1]; On-Treatment, N = 2200",62 (2.8)
same,Serious Adverse Events Related to Study Drug and Leading to Discontinuation N (%),"[1]; On-Treatment, N = 2200",16 (0.7)
same,Renal related adverse events: incidence rate,[1]; Table 8,57.12 per 1000 person-years
same,Overall incidence rate of neoplasms,[1]; between the treatment groups,low and balanced between the treatment groups
same,Adjudicated diabetic ketoacidosis (DKA) IRD,[1]; canagliflozin compared to placebo,"1.73 per 1,000 subject-years"
same,Adjudicated RCC incidence rate,[1]; canagliflozin group,0.17 per 1000 patient-years
same,Adjudicated renal cell carcinoma (RCC): subjects,[1]; canagliflozin group,1 subject
same,Adjudicated renal cell carcinoma (RCC): subjects (%),[1]; canagliflozin group,< 0.1%
same,Adverse event cited as reason for treatment discontinuation,[1]; canagliflozin group,12%
same,Female breast cancer incidence rate,[1]; canagliflozin group,4.08 per 1000 patient-years
same,Hyperkalemia adverse events incidence rate,[1]; canagliflozin group,"29.74 per 1,000 subject-years"
same,Renal-related adverse events: incidence rate,[1]; canagliflozin group,"57.12 per 1,000 subject-years"
same,Volume depletion adverse events incidence rate,[1]; canagliflozin group,"28.36 per 1,000 subject-years"
same,"Malignancy (Breast) IRD, Canagliflozin vs. Placebo",[1]; [4],2.49 /1000 subject years
same,Malignancy (Breast) n (%),[1]; [4],8 (1.1)
same,Malignancy (Breast) rate,[1]; [4],4.08 /1000 subject years
same,Adverse Events Leading to Discontinuation rate,[1]; exposure adjusted,52.59 /1000 pt-yrs
same,Adverse Events Related to Study Drug and Leading to Discontinuation rate,[1]; exposure adjusted,14.77 /1000 pt-yrs
same,Adverse Events Related to Study Drug rate,[1]; exposure adjusted,92.38 /1000 pt-yrs
same,Death (fatal adverse event) rate,[1]; exposure adjusted,21.47 /1000 pt-yrs
same,Serious Adverse Events Leading to Discontinuation rate,[1]; exposure adjusted,26.39 /1000 pt-yrs
same,Serious Adverse Events Related to Study Drug and Leading to Discontinuation rate,[1]; exposure adjusted,3.15 /1000 pt-yrs
same,Serious Adverse Events Related to Study Drug rate,[1]; exposure adjusted,12.21 /1000 pt-yrs
same,Serious Adverse Events rate,[1]; exposure adjusted,145.17 /1000 pt-yrs
same,Any Adverse Events rate,"[1]; exposure adjusted, On-Treatment",351.40 /1000 pt-yrs
same,Reports of pheochromocytoma or testicular cell cancer,[1]; in the study,no reports
same,"Malignancy (Bladder) IRD, Canagliflozin vs. Placebo",[1]; post-randomization,0.16 /1000 subject years
same,Malignancy (Bladder) rate,[1]; post-randomization,1.73 /1000 subject years
same,Malignancy (Bladder) n (%),"[1]; post-randomization, N = 2200",10 (0.5)
same,Acute kidney injury (%),[1]; [5],(3.9) %
same,Acute kidney injury n,[1]; [5],86
same,Anuria (%),[1]; [5],(<0.1) %
same,Anuria n,[1]; [5],1
same,Azotemia n,[1]; [5],0
same,Blood Creatinine increased (%),[1]; [5],(6.5) %
same,Blood Creatinine increased n,[1]; [5],144
same,Blood urea increased (%),[1]; [5],(1.0) %
same,Blood urea increased n,[1]; [5],21
same,Glomerular filtration rate decreased (%),[1]; [5],(3.1) %
same,Glomerular filtration rate decreased n,[1]; [5],68
same,Nephropathy toxic n,[1]; [5],0
same,Renal failure (%),[1]; [5],(0.5) %
same,Renal failure n,[1]; [5],10
same,Renal impairment (%),[1]; [5],(2.3) %
same,Renal impairment n,[1]; [5],50
same,HbA1c placebo-subtracted difference of LS means for change from baseline,[2]; 30-45 eGFR stratum,0.03
same,HbA1c placebo-subtracted difference of LS means for change from baseline,[2]; 45-60 eGFR stratum,−0.18
same,HbA1c placebo-subtracted difference of LS means for change from baseline,[2]; 60 to <90 eGFR stratum,−0.21
same,"Kaplan-Meier plot, primary composite endpoint: initial separation","[2]; FIG. 1, maintained across the entire study",52 Week
same,"Treatment HR for the primary efficacy outcome, adjusted for time-varying HbA1c and systolic blood pressure",[2]; HbA1c Concurrent in the Cox model,0.724
same,"Treatment HR for the primary efficacy outcome, adjusted for time-varying HbA1c and systolic blood pressure",[2]; HbA1c Lagged By 1 Visit,0.737
same,"Treatment HR for the primary efficacy outcome, adjusted for time-varying HbA1c and systolic blood pressure",[2]; HbA1c Running Mean,0.740
same,All-Cause Mortality (%),[2]; ITT,(7.6) %
same,All-Cause Mortality EVRT,[2]; ITT,29.04 per 1000 patient-years
same,All-Cause Mortality n/N,[2]; ITT,168/2202
same,Composite of CV Death/NFMI/NF Stroke/HHF/HUSA (%),[2]; ITT,(12.4) %
same,Composite of CV Death/NFMI/NF Stroke/HHF/HUSA EVRT,[2]; ITT,49.35 per 1000 patient-years
same,Composite of CV Death/NFMI/NF Stroke/HHF/HUSA n/N,[2]; ITT,273/2202
same,Composite of DoSC/ESKD/Renal Death (%),[2]; ITT,(6.9) %
same,Composite of DoSC/ESKD/Renal Death EVRT,[2]; ITT,26.99 per 1000 patient-years
same,Composite of DoSC/ESKD/Renal Death n/N,[2]; ITT,153/2202
same,HHF (%),[2]; ITT,(4.0) %
same,HHF (hospitalized heart failure) n/N,[2]; ITT,89/2202
same,HHF EVRT,[2]; ITT,15.65 per 1000 patient-years
same,MACE (%),[2]; ITT,(9.9) %
same,MACE EVRT,[2]; ITT,38.71 per 1000 patient-years
same,MACE n/N,"[2]; ITT, CV death, non-fatal MI, non-fatal stroke",217/2202
same,Composite of CV Death/HHF (%),"[2]; ITT, canagliflozin 100 mg",(8.1) %
same,Composite of CV Death/HHF EVRT,"[2]; ITT, canagliflozin 100 mg",31.47 per 1000 patient-years
same,Composite of CV Death/HHF n/N,"[2]; ITT, canagliflozin 100 mg",179/2202
same,Doubling of Serum Creatinine EVRT,"[2]; ITT, canagliflozin 100 mg",20.73 per 1000 patient-years
same,ESKD EVRT,"[2]; ITT, canagliflozin 100 mg",20.37 per 1000 patient-years
same,Primary Composite Endpoint EVRT (event rate),"[2]; ITT, canagliflozin 100 mg",43.21 per 1000 patient-years
same,Renal Death EVRT,"[2]; ITT, canagliflozin 100 mg",0.35 per 1000 patient-years
same,"Primary composite endpoint HR, supportive analysis","[2]; On-Treatment analysis set, vs placebo",0.64
same,Doubling of Serum Creatinine HR (95% CI),[2]; [6],"0.60 (0.48, 0.76)"
same,ESKD HR (95% CI),[2]; [6],"0.68 (0.54, 0.86)"
same,"Body weight least-squares mean difference, change from baseline",[2]; [7],−1.72%
same,"HbA1c least-squares mean difference, change from baseline",[2]; [7],−0.13%
same,"Systolic blood pressure least-squares mean difference, change from baseline",[2]; [7],−2.81 mmHg
same,Reduction of risk of the primary composite endpoint,"[2]; compared to placebo, ITT",30%
same,Reduction of risk of certain primary endpoints,[2]; on top of current standard of care that includes ACEi or ARB therapy,about 25%
same,"Exploratory hard composite of ESKD, renal death and CV death HR",[2]; vs placebo,0.73
same,Composite of CV death and hospitalized heart failure HR,"[2]; vs placebo, ITT",0.69
same,Composite of CV death and hospitalized heart failure risk reduction,"[2]; vs placebo, ITT",31%
same,"Composite of doubling of serum creatinine, ESKD, and renal death HR","[2]; vs placebo, ITT",0.66
same,"Composite of doubling of serum creatinine, ESKD, and renal death risk reduction","[2]; vs placebo, ITT",34%
same,Hospitalization for heart failure HR,"[2]; vs placebo, ITT",0.61
same,Hospitalization for heart failure risk reduction,"[2]; vs placebo, ITT",39%
same,MACE HR,"[2]; vs placebo, ITT",0.80
same,MACE risk reduction,"[2]; vs placebo, ITT",20%
